The values below come from ChEMBL document CHEMBL1201862, “PubChem BioAssay data set” (2004).

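All cell lines were grown in 96-well plates and treated with compound for 48 hours. Abbreviation: GI50, concentration required for 50% inhibition of growth.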 The source made the active and inactive calls. Cut-off read from the data, not from the text of the source: active = GI50 up to about 1.1 µM and inactive = higher. Where only a bound is given, the exact number is not on record here.

Test systems include SK-MEL-5; NCI-H226; HCC 2998; SNB-19; K562; U-251; RXF 393; Hs-578T; PC-3; OVCAR-4; HCT-15; 786-0; ACHN; UO-31; A549; SNB-75; DU-145; SW-620; Malme-3M; A498.
Assay in all cases: NCI tumour cell line growth inhibition, 48 h

Regarding `Cc1nc2cccc(F)c2c(=O)n1-c1nnc(C2CC2)s1`, the GI50 in the experiment on SK-MEL-5, with NCI-H226, with HCC 2998, with SNB-19, in the experiment with K562 and with U-251 was > 10 µM (inactive) throughout. Also, the GI50 in the experiment on RXF 393 is > 10 µM (inactive); in the experiment on Hs-578T, > 10 µM (inactive); in the experiment with PC-3 it was > 10 µM (inactive); in the experiment with OVCAR-4, > 10 µM (inactive); in the experiment on HCT-15, > 10 µM; with 786-0, > 10 µM (inactive). The GI50 with ACHN, in the experiment with UO-31, with A549, in the experiment with SNB-75, with DU-145 and with SW-620 was > 10 µM (inactive) each time.
Regarding `COc1cc2c(cc1OCCCN1C(=O)c3cccc4cccc(c34)C1=O)N=C[C@@H]1CCCN1C2=O`, the GI50 with SK-MEL-5 was 20.4 µM (inactive); in the experiment on NCI-H226 it was 34.4 µM (inactive); in the experiment on HCC 2998, > 63.7 µM (inactive); with SNB-19, > 92 µM (inactive); with K562 it was 22.5 µM (inactive); with U-251 it was 39.5 µM (inactive). For the same compound, the GI50 in the experiment on RXF 393 is 14.9 µM (inactive); with PC-3, 44.8 µM (inactive); in the experiment with OVCAR-4, 31.7 µM (inactive); in the experiment on Malme-3M, 19.5 µM (inactive); in the experiment with A498 it was > 100 µM (inactive); in the experiment with HCT-15, 23.1 µM. Further, the GI50 with 786-0 was 21 µM (inactive); with ACHN it was 25.7 µM (inactive); in the experiment on UO-31, 22.5 µM (inactive); with A549 it was > 100 µM (inactive); in the experiment on DU-145, 46.1 µM (inactive); in the experiment with SW-620, 22.6 µM (inactive).
`COC(=O)[C@@H]1C=C[C@@H](C#N)n2c(=O)n(-c3ccccc3)c(=O)n21`: the GI50 with SK-MEL-5 was 46.3 µM (inactive); with NCI-H226, 15.6 µM (inactive); with HCC 2998, 33.3 µM (inactive); with SNB-19, > 100 µM (inactive); in the experiment on K562, 37.9 µM (inactive); with U-251, 33.8 µM (inactive). Also, the GI50 with Hs-578T was 23.7 µM (inactive); with OVCAR-4, 36.3 µM (inactive); in the experiment on A498, 41.1 µM (inactive); in the experiment on HCT-15, 30.1 µM; in the experiment with 786-0, 25.2 µM (inactive); with ACHN, 38.5 µM (inactive). Moreover, the GI50 is 41.9 µM (inactive) in the experiment on UO-31, 26.7 µM (inactive) with SNB-75, 25.5 µM (inactive) with DU-145 and 41.9 µM (inactive) with SW-620.
On to `COc1ccc(Cn2nc(OCc3ccccc3)c3cc([N+](=O)[O-])ccc32)cc1`, for which the GI50 in the experiment with SK-MEL-5 was > 100 µM (inactive); in the experiment with NCI-H226, > 100 µM (inactive); in the experiment with HCC 2998 it was 99.3 µM (inactive); in the experiment on SNB-19, > 100 µM (inactive); with K562, > 100 µM (inactive); in the experiment on RXF 393, > 100 µM (inactive). The GI50 with Hs-578T was > 100 µM (inactive); with Malme-3M it was > 100 µM (inactive); with A498, > 100 µM (inactive); in the experiment with HCT-15, > 100 µM; in the experiment with 786-0, > 100 µM (inactive); in the experiment on ACHN, > 100 µM (inactive). For the same compound, the GI50 in the experiment on A549, in the experiment on SNB-75, in the experiment on DU-145 and in the experiment with SW-620 was > 100 µM (inactive) throughout.
Take `CC(=O)OCC1OC(n2c3c(c(-c4cccc5ccccc45)c(C#N)c2=S)CCCC3)C(OC(C)=O)C(OC(C)=O)C1OC(C)=O` (centres undefined): the GI50 in the experiment with SK-MEL-5, with NCI-H226, in the experiment on HCC 2998, in the experiment with SNB-19, with K562 and with U-251 was > 100 µM (inactive) each time. Moreover, the GI50 with RXF 393 was > 100 µM (inactive); with PC-3, 27.7 µM (inactive); with OVCAR-4, > 100 µM (inactive); in the experiment with Malme-3M, > 100 µM (inactive); in the experiment with A498, > 100 µM (inactive); in the experiment on HCT-15 it was > 100 µM. The GI50 was > 100 µM (inactive) in the experiment on 786-0; > 100 µM (inactive) with ACHN; 31.3 µM (inactive) with UO-31; > 100 µM (inactive) in the experiment on A549; > 100 µM (inactive) with DU-145; > 100 µM (inactive) in the experiment on SW-620.
For the compound `Nn1c(CCCCCCCCc2nnc(COc3ccc4ccccc4c3O)n2N)nnc1COc1ccc2ccccc2c1O`, the GI50 was 20.1 µM (inactive) in the experiment with SK-MEL-5; 17.9 µM (inactive) with NCI-H226; 25.2 µM (inactive) in the experiment on HCC 2998; 30 µM (inactive) in the experiment on SNB-19; 41.7 µM (inactive) in the experiment with K562; 41.4 µM (inactive) in the experiment on U-251. The GI50 is 26.1 µM (inactive) with RXF 393; 26.7 µM (inactive) in the experiment on PC-3; 34.1 µM (inactive) with OVCAR-4; 4.48 µM (inactive) in the experiment on Malme-3M; 35.8 µM (inactive) with A498; 22.3 µM in the experiment with HCT-15. The GI50 in the experiment on 786-0 is 33.9 µM (inactive); in the experiment with ACHN, 31.3 µM (inactive); in the experiment on UO-31 it was 28.4 µM (inactive); in the experiment on A549, 25.1 µM (inactive); in the experiment on SNB-75, 51.1 µM (inactive); in the experiment on DU-145, 33.8 µM (inactive). Besides, the GI50 with SW-620 was 52.7 µM (inactive).
Take `Cc1ccc(S(=O)(=O)NC(=O)NC(C(=O)O)C(C)C)cc1` (centres undefined): the GI50 in the experiment with SK-MEL-5, in the experiment on SNB-19, in the experiment on K562, in the experiment on U-251, in the experiment with RXF 393 and in the experiment on Hs-578T was > 100 µM (inactive) in each case. Also, the GI50 is > 100 µM (inactive) in the experiment with PC-3; > 100 µM (inactive) with OVCAR-4; > 100 µM (inactive) in the experiment with Malme-3M; > 100 µM with HCT-15; > 100 µM (inactive) with 786-0; > 100 µM (inactive) in the experiment on ACHN. For the same compound, the GI50 with UO-31, in the experiment with A549, in the experiment with SNB-75, in the experiment on DU-145 and in the experiment with SW-620 was > 100 µM (inactive) each time.
Consider `CC(=O)OCC1OC(O/C=C(\CN=[N+]=[N-])C(C)=O)C(OC(C)=O)C(OC(C)=O)C1OC(C)=O` (centres undefined), for which the GI50 was 13.2 µM (inactive) in the experiment on SK-MEL-5; 19 µM (inactive) in the experiment with HCC 2998; 27.6 µM (inactive) in the experiment with SNB-19; 5.02 µM (inactive) in the experiment with K562; 12.2 µM (inactive) with U-251; 52.6 µM (inactive) in the experiment on Hs-578T. Also, the GI50 in the experiment with PC-3 is 12 µM (inactive); in the experiment on OVCAR-4, 12.5 µM (inactive); in the experiment on Malme-3M it was 3.05 µM (inactive); with A498, 20.3 µM (inactive); with HCT-15, 3.94 µM; in the experiment with 786-0 it was 5.38 µM (inactive). For the same compound, the GI50 in the experiment with ACHN was 3.4 µM (inactive); with UO-31, 8.28 µM (inactive); in the experiment with A549, 20.7 µM (inactive); with SNB-75 it was 13.5 µM (inactive); in the experiment with SW-620, 3.53 µM (inactive).
